Target: T1, GST-HsPRMT9 (Homo sapiens, UniProt Q6P2P2)
T1 construct: made in house; host or cells: E. coli
T1 sequence (Q6P2P2 1-845): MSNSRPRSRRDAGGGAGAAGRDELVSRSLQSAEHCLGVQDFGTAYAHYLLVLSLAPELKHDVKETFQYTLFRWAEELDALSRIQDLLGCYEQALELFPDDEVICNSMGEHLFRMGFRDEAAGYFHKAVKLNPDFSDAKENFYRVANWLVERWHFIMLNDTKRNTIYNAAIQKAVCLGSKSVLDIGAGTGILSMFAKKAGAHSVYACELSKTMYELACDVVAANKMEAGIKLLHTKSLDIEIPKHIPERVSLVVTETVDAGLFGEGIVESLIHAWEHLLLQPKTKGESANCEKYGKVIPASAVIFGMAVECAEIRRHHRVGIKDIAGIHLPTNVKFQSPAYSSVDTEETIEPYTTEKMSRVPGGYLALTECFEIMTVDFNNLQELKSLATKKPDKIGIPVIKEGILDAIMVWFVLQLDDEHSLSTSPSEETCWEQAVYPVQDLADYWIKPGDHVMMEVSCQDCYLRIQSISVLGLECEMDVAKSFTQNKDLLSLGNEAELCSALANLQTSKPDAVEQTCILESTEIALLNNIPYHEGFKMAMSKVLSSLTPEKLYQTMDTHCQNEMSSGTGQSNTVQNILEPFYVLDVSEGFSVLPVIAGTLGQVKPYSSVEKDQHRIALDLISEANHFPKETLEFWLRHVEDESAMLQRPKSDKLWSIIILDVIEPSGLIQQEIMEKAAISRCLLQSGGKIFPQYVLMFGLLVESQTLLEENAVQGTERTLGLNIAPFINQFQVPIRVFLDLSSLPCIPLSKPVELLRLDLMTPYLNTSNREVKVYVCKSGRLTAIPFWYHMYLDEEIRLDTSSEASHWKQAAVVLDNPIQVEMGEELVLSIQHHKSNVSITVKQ
Test: Radioisotope-based assay (SDS-PAGE, fluorography, densitometry), HsPRMT9
Format: biochemical
Details: substrate GST-SF3B2 (401–550), 37 °C, read-out: % HsPRMT9 residual activity
Method: Based on these outcomes, we resolved to explore the effect on the capability to inhibit PRMT9 enzymatic activity of further reduction of the distance between the pharmacophoric moieties. […] After the experiment was repeated with 100, 250, and 500 μM concentrations of each inhibitor, half inhibition was observed only at a concentration of roughly 250 μM (Figure 4d).
[…]. The experiments were performed as reported in the Experimental procedures section. GST-HsPRMT9 (a) and GST-HsPRMT7 (b) were incubated with human GST-SF3B2 (401–550) peptide or recombinant HsH2B, respectively (1 μg of enzyme, 5 μg of substrate), 0.14 μM [^3H]SAM, and the indicated concentrations of tested compounds at the corresponding optimal reaction temperature (37 °C for HsPRMT9, 15 °C for HsPRMT7). C. elegans GST-tagged enzymes PRMT9 (c) and PRMT7 (d) were incubated with GST-CeSFTB-2 (99–248) fragment or recombinant HsH2B, respectively (1 μg of enzyme, 5 μg of substrate), 0.14 μM [^3H]SAM, and the indicated concentrations of tested compounds at the corresponding optimal reaction temperature (25 °C for CePRMT9, 15 °C for CePRMT7). After SDS-PAGE, the gels were treated as previously described[48] and densitometry analysis was done using ImageJ software, and data was plotted as normalized activity to the no inhibitor controls.
Human PRMT9, C. elegans PRMT9, human PRMT7, and C. elegans PRMT7 plasmids were sequenced, expressed in E. coli as GST-fusion proteins, and purified as previously described.[48] Substrates were also sequenced and purified as described [human GST-SF3B2 (401–550);[13]C. elegans SFTB-2;[48] human histone H2B (New England Biolabs, M2505S)]. Xenopus laevis histone H2B was expressed in E. coli and purified similarly to what was previously reported by Luger et al.[72]
Reactions consisting of approximately 1 μg of enzyme (human or C. elegans GST-tagged enzymes PRMT9 and PRMT7), reacted with approximately 5 μg of substrate [for human PRMT9, human GST-SF3B2 401–550 fragment; C. elegans PRMT9 with C. elegans GST-SFTB-2 (99–248) fragment, or recombinant human histone H2B from New England Biolabs (M2505S)], were incubated for the indicated time in reaction buffer {50 mM potassium HEPES buffer, 10 mM NaCl, 1 mM dithiothreitol (DTT), pH 8.0 with 0.7 μM S-adenosyl-L-[methyl-^3H]methionine (^3H-AdoMet, PerkinElmer Life Sciences, 82.7 Ci/mmol, 0.55 mCi/mL in 10 mM H2SO4/EtOH [9:1 (v/v)])} in a final reaction volume of 60 μL. Each reaction was incubated at the corresponding optimal reaction temperature (37 °C for human PRMT9, 25 °C for C. elegans PRMT9, and 15 °C for C. elegans and human PRMT7 enzymes. MTA was dissolved in water, and a wavelength scan was taken to determine the final concentration using the extinction coefficient. The final concentrations used are indicated in the figure legends. […]. EML734, EML736, and EML709 were also dissolved in DMSO, and further dilutions were made in DMSO for the working stocks. For controls, no inhibitor reactions were created by the addition of the respective solvent (water for MTA and DMSO for EPZ015666 and EML inhibitors).
After the reaction incubations with the various concentrations of inhibitors, the reactions were quenched by adding 0.2 volume of 5× SDS sample loading buffer, and subsequently, the reactions were run on a 12.6% polyacrylamide Tris gel. To collect the radioactive signal, the gels were then treated in the same way as previously described.[48]
After various exposures were collected to ensure linear detection, densitometry analysis was done using ImageJ software, and data were plotted as normalized activity to the no inhibitor controls.

| remaining activity at 5 µM [%] | remaining activity at 25 µM [%] | remaining activity at 50 µM [%] | remaining activity at 100 µM [%] | SMILES |
| --- | --- | --- | --- | --- |
| 30.4 | 3.42 | 1.37 | 0.3 | COC(=O)c1cc(O)c2cc(NC(=O)NCCCNC(=N)NC[C@H]3O[C@@H](n4cnc5c(N)ncnc54)[C@H](O)[C@@H]3O)ccc2c1 [1a] |
| 32 | 6.5 | 0.52 | 0.34 | COC(=O)c1cc(O)c2cc(NC(=O)NCCCCCNC(=N)NC[C@H]3O[C@@H](n4cnc5c(N)ncnc54)[C@H](O)[C@@H]3O)ccc2c1 [1c] |
| 46 | 13.8 | 6.15 | 1.64 | COC(=O)c1cc(O)c2cc(NC(=O)NCCCCNC(=N)NC[C@H]3O[C@@H](n4cnc5c(N)ncnc54)[C@H](O)[C@@H]3O)ccc2c1 [1b] |
